Paper PMC7615709 (Antiviral research, 2007)

Molecular target: T1, FLAG-p7 (HCV p7, genotype 1b) (Hepatitis C virus isolate HC-J4, UniProt O92972)
T1 sequence (O92972 747-809 limits assumed): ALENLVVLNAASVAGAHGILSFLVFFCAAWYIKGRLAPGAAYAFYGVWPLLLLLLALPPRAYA
Assay: carboxyfluorescein release from liposomes, fluorimetry, initial rates
Format: biochemical

NC12CC3CC(CC(C3)C1)C2 [amantadine]
IC50: ~2000 nM
